Data as given in patent US8642618B2, “Carbostyril derivatives including cilostazol for treating fatty liver” (Otsuka Pharmaceutical Co., Ltd., priority 2007, dated 2014).

Test system: Fisher 344 rats fed a choline-deficiented, L-amino acid-defined (CDAA) diet (animal model for fatty liver)
Assay: CDAA diet rat model for fatty liver: liver staining for lipid droplets and serum triglyceride
Format: in vivo
Description: Fisher 344 rats were fed only a general diet or a choline-deficiented, L-amino acid-defined (CDAA) diet to prepare a control group and a CDAA group as an animal model for fatty liver, respectively. Three medicament-treated groups were prepared by administering the following three medicaments to the CDAA groups every day. (Aspirin and ticlopidine are medicaments having the same platelet aggregation inhibitory action as cilostazol.)
In addition, the amount of triglyceride in the liver as well as the serum level of triglyceride in those rats were measured.

## O=C1CCc2cc(OCCCCc3nnnn3C3CCCCC3)ccc2N1 [cilostazol, 6-[4-(1-cyclohexyl-1H-tetrazol-5-yl)butoxy]-3,4-dihydrocarbostyril]
CDAA diet + 6 mg/kg every day for 6 weeks, compared with CDAA group without cilostazol and with aspirin (5 mg/kg) / ticlopidine (10 mg/kg) groups, FIG. 1-9
  lipid droplet of liver (Hematoxylin-eosin staining and Masson staining): markedly less
CDAA diet + 6 mg/kg every day, 6 weeks after start of administration, compared with control group and other medicaments-treated groups, FIG. 10
  serum level of triglyceride: significantly lower
